How the values were obtained:
mouse EpiSCs = assay: Mouse EpiSC self-renewal culture; type: cell-based; details: compared to IWR-1, XAV939 and JW55
Source text: We therefore reasoned that if CHIR induces EpiSC differentiation through stabilization of β-catenin, de-stabilization of β-catenin might promote EpiSC self-renewal. We tested this hypothesis by administering the tankyrase inhibitor XAV939 to mouse EpiSC cultures. XAV939-mediated inhibition of tankyrase stabilizes Axin, leading to the formation of the β-catenin destruction complex, composed of GSK3, Axin and adenomatous polyposis coli (APC) (Huang et al., 2009). […] EpiSCs cultured in CHIR/XAV could be routinely passaged by single-cell dissociation and replating onto gelatin-coated dishes, and could be cryo-preserved and recovered at high efficiency by standard techniques.
final concentrations: CHIR99021 (3 μM), PD0325901 (1 μM), XAV939 (Sigma, 2 μM), IWR-1 (Sigma, 2.5 μM), IWP-2 (Stemgent, 2.5 μM), Pyrvinium (Sigma, 100 nM), recombinant human FGF2 (PeproTech, 10 ng/ml), and recombinant human activin A (PeproTech, 10 ng/ml). CHIR99021 and PD0325901 were synthesized in the Division of Signal Transduction Therapy, University of Dundee, UK.
(§1) The basal medium for mouse EpiSC culture is the conventional mouse ESC medium, which consists of GMEM (Sigma) supplemented with 10% fetal bovine serum (FBS) (Hyclone), 2 mM L-glutamine (Invitrogen), 1 mM sodium pyruvate (Invitrogen), 1% nonessential amino acids (Invitrogen), and 0.1 mM (3-mercaptoethanol. Mouse EpiSCs were derived and maintained in the basal medium supplemented with FGF2/activin, CHIR/XAV, or CHIR/IWR-1. The basal medium for rat EpiSC culture is N2B27 (Tong et al., 2011), which was prepared by mixing 500 ml of DMEM/F12 (Invitrogen) with 500 ml of Neurobasal™ medium (Invitrogen), and adding 5 ml of N2 (Invitrogen), 10 ml of B27 (Invitrogen), 5 ml of Glutamax™ (Invitrogen), and 1 ml of 0.1 M β-mercaptoethanol (Sigma). The basal medium for human ESC culture consists of Knockout™ DMEM/F12 supplemented with 20% KSR (Invitrogen), 1% nonessential amino acids, 2 mM L-glutamine, and 0.1 mM (3-mercaptoethanol. Human ESCs were cultured in the basal medium supplemented with FGF2, CHIR/XAV, or CHIR/IWR-1.
Post-implantation epiblasts were isolated from mouse or rat embryos and dissociated into small clumps as previously described (Chenoweth and Tesar, 2010). Epiblast fragments were placed into 4-well plates pre-coated with 0.1% gelatin (for mouse epiblasts) or pre-seeded with γ-irradiated mouse embryonic fibroblasts (MEFs) (for rat epiblasts) and cultured in either the FGF2/activin or the CHIR/XAV conditions. Emerging EpiSCs were trypsinized and expanded every 2-3 days at a subculture ratio of 1:4. Animal experiments were performed according to the investigator's protocols approved by the University of Southern California Institutional Animal Care and Use Committee.

H9 human ESCs = assay: Human ESC self-renewal culture; type: cell-based; details: compared to IWR-1, XAV939 and JW55
Source text: As human ESCs share defining features with mouse EpiSCs (Hanna et al., 2010; Rossant, 2008; Tesar et al., 2007), we tested whether modulating β-catenin function can also promote human ESC self-renewal. […] Next, we examined the effect of CHIR/XAV and CHIR/IWR-1 on human ESC self-renewal. […] Similar results were obtained in H1 and HES3 human ESCs (data not shown). […] Moreover, human ESCs maintained in CHIR/IWR-1 express pluripotency markers Oct4, Nanog and Sox2 (FIG. 7E), and retain the ability to differentiate into cells of all three germ layers, both in vitro and in vivo (FIGS. 7F and 7G).
as §1
H1, H9, HES-2 and HES-3 human ESC lines were kindly provided by the University of Southern California Stem Cell Core Facility. Human ESCs were routinely maintained on γ-irradiated MEF feeders in Knockout™ DMEM medium (Invitrogen) supplemented with 20% Knockout™ serum replacement (KSR; Invitrogen), 10 ng/ml FGF2 (PeproTech), 1% nonessential amino acids, 2 mM L-glutamine, and 0.1 mM β-mercaptoethanol. […]

Wnt pathway = details: relative to IWR-1; cited from earlier work

O=C1C([C@H]2CC[C@H](C(=O)Nc3cccc4cccnc34)CC2)C(=O)[C@H]2[C@H]3CC[C@H](C3)[C@@H]12 (stereo partly drawn) [53AH, (1R,4r)-4-((2s,3aR,4R,7S,7aS)-1,3-dioxooctahydro-1H-4,7-methanoinden-2-yl)-N-(quinolin-8-yl)cyclohexanecarboxamide]
robustness for long-term expansion of mouse EpiSCs (mouse EpiSCs): more robust for long-term expansion
robustness for long-term expansion of human ESCs (H9 human ESCs): more robust for long-term expansion
potency in Wnt inhibition compared to IWR-1 (Wnt pathway): 5 fold

Source: patent US20130273649A1, “Culture medium for pluripotent stem cells” (UNIVERSITY OF SOUTHERN CALIFORNIA, priority 2012, published 2013)
